We go through 20 compounds from patent US20240315247A1, “MICROBIOCIDAL QUINOLINE DIHYDRO-(THIAZINE)OXAZINE DERIVATIVES” (SYNGENTA CROP PROTECTION AG, priority 2020, published 2024).

In series [1] the test system is Monographella nivalis (Microdochium nivale). The series can be described thus: Monographella nivalis (Microdochium nivale) / liquid culture (Foot rot cereals). It counts as cell-based. To be noted: growth inhibition photometrically 4-5 days after application, compared to untreated control. Here is the method:
Monographella nivalis (Microdochium nivale)/Liquid Culture (Foot Rot Cereals) Conidia of the fungus from cryogenic storage are directly mixed into nutrient broth (PDB potato dextrose broth). After placing a (DMSO) solution of test compound into a microtiter plate (96-well format), the nutrient broth containing the fungal spores is added. The test plates are incubated at 24° C. and the inhibition of growth is determined photometrically 4-5 days after application.

For series [2], the system named is Botryotinia fuckeliana (Botrytis cinerea). The series can be described thus: Botryotinia fuckeliana (Botrytis cinerea) / liquid culture (Gray mould). It counts as cell-based. To be noted: growth inhibition photometrically 3-4 days after application, compared to untreated control. The method, then:
Botryotinia Fuckeliana (Botrytis cinerea)/Liquid Culture (Gray Mould) Conidia of the fungus from cryogenic storage are directly mixed into nutrient broth (Vogels broth). After placing a (DMSO) solution of test compound into a microtiter plate (96-well format), the nutrient broth containing the fungal spores is added. The test plates are incubated at 24° C. and the inhibition of growth is determined photometrically 3-4 days after application.

Series [3] deals with Glomerella lagenarium (Colletotrichum laqenarium). The series can be described thus: Glomerella lagenarium (Colletotrichum lagenarium) / liquid culture (Anthracnose). It counts as cell-based. Particulars: growth inhibition photometrically 3-4 days after application, compared to untreated control. Here is the method:
Glomerella lagenarium (Colletotrichum laqenarium)/liquid culture (Anthracnose) Conidia of the fungus from cryogenic storage are directly mixed into nutrient broth (PDB potato dextrose broth). After placing a (DMSO) solution of test compound into a microtiter plate (96-well format), the nutrient broth containing the fungal spores is added. The test plates are incubated at 24° C. and the inhibition of growth is measured photometrically 3-4 days after application.

In the case of `Cc1nc2c(F)c(F)ccc2cc1C1=NC(C)(COc2ccccc2)CC(C)(C)O1` (stereo not drawn) [E.05, 2-(7,8-difluoro-2-methyl-3-quinolyl)-4,6,6-trimethyl-4-(phenoxymethyl)-5H-1,3-oxazine], the inhibition of growth at 20 ppm in series [1] and in series [2] was at least 80% each time.

Take `CC1(COc2ccc(F)cc2)CC(C)(C)OC(c2cnc3c(F)cccc3c2)=N1` (stereo not drawn) [E.04, 4-[(4-fluorophenoxy)methyl]-2-(8-fluoro-3-quinolyl)-4,6,6-trimethyl-5H-1,3-oxazine]: the inhibition of growth at 20 ppm in series [1], in series [2] and in series [3] was at least 80% throughout.

Consider `CC1(C)CC(CCC(F)(F)F)N=C(c2cnc3c(F)c(F)ccc3c2)O1` (stereo not drawn) [E.010, 2-(7,8-difluoro-3-quinolyl)-6,6-dimethyl-4-(3,3,3-trifluoropropyl)-4,5-dihydro-1,3-oxazine], for which the inhibition of growth at 20 ppm in series [1] and in series [2] was at least 80% in each case.

Consider `CC1(C)CC(COc2ccccc2)N=C(c2cnc3c(F)c(F)ccc3c2)O1` (stereo not drawn) [E.07, 2-(7,8-difluoro-3-quinolyl)-6,6-dimethyl-4-(phenoxymethyl)-4,5-dihydro-1,3-oxazine], for which the inhibition of growth at 20 ppm in series [1] and in series [2] was at least 80% throughout.

As for `CC(C)CC1(C)CC(C)(C(C)C)OC(c2cnc3c(F)cccc3c2)=N1` (stereo not drawn) [E.017, 2-(8-fluoro-3-quinolyl)-4-isobutyl-6-isopropyl-4,6-dimethyl-5H-1,3-oxazine], the inhibition of growth at 20 ppm in series [1], in series [2] and in series [3] was at least 80% in each case.

`C=C(C)CC1(CC)CC(C)(C)OC(c2cnc3c(F)cccc3c2)=N1` (stereo not drawn) [E.020, 4-ethyl-2-(8-fluoro-3-quinolyl)-6,6-dimethyl-4-(2-methylallyl)-5H-1,3-oxazine]: the inhibition of growth at 20 ppm in series [1], in series [2] and in series [3] was at least 80% in each case.

For `CC1(COc2ccc(Br)cc2Br)CC(C)(C)OC(c2cnc3c(F)cccc3c2)=N1` (stereo not drawn) [E.02, 4-[(2,4-dibromophenoxy)methyl]-2-(8-fluoro-3-quinolyl)-4,6,6-trimethyl-5H-1,3-oxazine], the inhibition of growth at 20 ppm in series [1] and in series [2] was at least 80% in each case.

`CC1(C)CC(CC(F)(F)F)N=C(c2cnc3c(F)c(F)ccc3c2)O1` (stereo not drawn) [E.09, 2-(7,8-difluoro-3-quinolyl)-6,6-dimethyl-4-(2,2,2-trifluoroethyl)-4,5-dihydro-1,3-oxazine] yielded a melting point of 146 to 148 °C. In series [1], the inhibition of growth at 20 ppm was at least 80%.

For the compound `CC(C)(C)CC1CC(C)(C)OC(c2cnc3c(F)c(F)ccc3c2)=N1` (stereo not drawn) [E.011, 2-(7,8-difluoro-3-quinolyl)-4-(2,2-dimethylpropyl)-6,6-dimethyl-4,5-dihydro-1,3-oxazine], the melting point was 112 to 113 °C. Besides, in series [1], the inhibition of growth at 20 ppm is at least 80%. The inhibition of growth at 20 ppm in series [2] was at least 80%.

On to `C=C(C)CC1(C)CC(C)(C)OC(c2cnc3c(F)cccc3c2)=N1` (stereo not drawn) [E.019, 2-(8-fluoro-3-quinolyl)-4,6,6-trimethyl-4-(2-methylallyl)-5H-1,3-oxazine], for which the inhibition of growth at 20 ppm in series [1], in series [2] and in series [3] was at least 80% in each case.

Take `CC1(CC2CCCCC2)CC(C)(C)OC(c2cnc3c(F)c(F)ccc3c2)=N1` (stereo not drawn) [E.015, 4-(cyclohexylmethyl)-2-(7,8-difluoro-3-quinolyl)-4,6,6-trimethyl-5H-1,3-oxazine]: the inhibition of growth at 20 ppm in series [1], in series [2] and in series [3] was at least 80% each time.

For `C=C(C)CC1(C)CC(C)(C)OC(c2cnc3c(F)c(F)ccc3c2)=N1` (stereo not drawn) [E.016, 2-(7,8-difluoro-3-quinolyl)-4,6,6-trimethyl-4-(2-methylallyl)-5H-1,3-oxazine], the inhibition of growth at 20 ppm in series [1], in series [2] and in series [3] was at least 80% throughout.

Regarding `CC1(COc2ccccc2)CC(C)(C)OC(c2cnc3c(F)cccc3c2)=N1` (stereo not drawn) [E.08, 2-(8-fluoro-3-quinolyl)-4,6,6-trimethyl-4-(phenoxymethyl)-5H-1,3-oxazine], the inhibition of growth at 20 ppm in series [1], in series [2] and in series [3] was at least 80% throughout.

Regarding `CC1(COc2ccc(C#N)cc2)CC(C)(C)OC(c2cnc3c(F)cccc3c2)=N1` (stereo not drawn) [E.01, 4-[[2-(8-fluoro-3-quinolyl)-4,6,6-trimethyl-5H-1,3-oxazin-4-yl]methoxy]benzonitrile], the inhibition of growth at 20 ppm in series [1] and in series [2] was at least 80% throughout.

Turning to `CC(C)CC1(C)CC(C)(C)OC(c2cnc3c(F)cccc3c2)=N1` (stereo not drawn) [E.013, 2-(8-fluoro-3-quinolyl)-4-isobutyl-4,6,6-trimethyl-5H-1,3-oxazine], the inhibition of growth at 20 ppm in series [1], in series [2] and in series [3] was at least 80% in each case.

Regarding `CC(C)CC1(C)CC(C)(C)OC(c2cnc3c(F)c(F)ccc3c2)=N1` (stereo not drawn) [E.014, 2-(7,8-difluoro-3-quinolyl)-4-isobutyl-4,6,6-trimethyl-5H-1,3-oxazine], the inhibition of growth at 20 ppm in series [1], in series [2] and in series [3] was at least 80% each time.

With `CC(C)CC1CC(C)(C)OC(c2cnc3c(F)c(F)ccc3c2)=N1` (stereo not drawn) [E.012, 2-(7,8-difluoro-3-quinolyl)-4-isobutyl-6,6-dimethyl-4,5-dihydro-1,3-oxazine], the inhibition of growth at 20 ppm in series [1], in series [2] and in series [3] was at least 80% each time.

For `CC1(COc2ccc(Br)cc2)CC(C)(C)OC(c2cnc3c(F)cccc3c2)=N1` (stereo not drawn) [E.03, 4-[(4-bromophenoxy)methyl]-2-(8-fluoro-3-quinolyl)-4,6,6-trimethyl-5H-1,3-oxazine], the inhibition of growth at 20 ppm in series [1], in series [2] and in series [3] was at least 80% each time.

Regarding `CCC1(C)CC(C)(CC(C)C)N=C(c2cnc3c(F)cccc3c2)O1` (stereo not drawn) [E.018, 6-ethyl-2-(8-fluoro-3-quinolyl)-4-isobutyl-4,6-dimethyl-5H-1,3-oxazine], the inhibition of growth at 20 ppm in series [1], in series [2] and in series [3] was at least 80% throughout.

In turn, `CC1(COc2ccccc2)CC(C)(C)OC(c2cnc3c(F)c(F)ccc3c2)=N1` (stereo not drawn) [E.06, 2-(7,8-difluoro-3-quinolyl)-4,6,6-trimethyl-4-(phenoxymethyl)-5H-1,3-oxazine] yielded a melting point of 105 to 107 °C. Moreover, the inhibition of growth at 20 ppm in series [1] is at least 80%. The compound also registered an inhibition of growth at 20 ppm in series [2] of at least 80%.
